Laboratory results published in ChEMBL document CHEMBL1128211, “3D-quantitative structure-activity relationships of human immunodeficiency virus type-1 proteinase inhibitors: comparative molecular field analysis of 2-heterosubstituted statine derivatives-implications for the design of novel inhibitors” (J Med Chem, 1995).

Target: Human immunodeficiency virus type 1 protease (Human immunodeficiency virus 1, UniProt Q72874)
Test: Inhibitory activity was determined against HIV type 1 protease

| Structure (SMILES) | Ki [µM] |
| --- | --- |
| COc1ccc(CN[C@@H](C(=O)NCCNCc2nc3ccccc3[nH]2)[C@H](O)[C@H](Cc2ccccc2)NC(=O)[C@@H](NC(=O)OCc2ccccc2)C(C)C)cc1 | 1.29 |
| CC(C)[C@H](NC(=O)[C@H](NCc1ccccc1)[C@H](O)[C@H](Cc1ccccc1)NC(=O)[C@@H](N)C(C)(C)C)C(=O)NCc1ccccc1 | 0.0912 |
| CC(C)(C)[C@H](NC(=O)OCc1ccccc1)C(=O)N[C@@H](Cc1ccccc1)[C@@H](O)[C@@H](NCc1ccc(OCCN2CCOCC2)cc1)C(=O)N[C@H](CO)c1ccccc1 (stereo in doubt; 283268) | 0.1 |
| CC(C)[C@H](NC(=O)OCc1ccccc1)C(=O)N[C@@H](Cc1ccccc1)[C@@H](O)[C@@H](NCCc1cc2ccccc2[nH]1)C(=O)N[C@H](C(=O)NCc1ccccc1)C(C)C | 0.0617 |
| COc1ccc(CN[C@@H](C(=O)N[C@H](C(=O)NCCN2CCOCC2)C(C)C)[C@H](O)[C@H](Cc2ccccc2)NC(=O)[C@@H](NC(=O)OCc2ccccc2)C(C)C)cc1 | 0.024 |
| COc1ccc(CN[C@@H](C(=O)N[C@H]2c3ccccc3CC2O)[C@H](O)[C@H](Cc2ccccc2)NC(=O)[C@@H](NC(=O)OC(C)(C)C)C(C)(C)C)cc1 (stereo partly specified) | 0.209 |
| CC[C@H](C)[C@H](NC(=O)[C@H](NCc1ccccc1)[C@H](O)[C@H](Cc1ccccc1)NC(=O)[C@@H](NC(=O)OCc1ccccc1)C(C)C)C(=O)NCc1ccccc1 | 0.0437 |
| CC(C)(C)OC(=O)N[C@@H](Cc1ccccc1)[C@@H](O)[C@@H](NCc1ccc(CNC(=O)OCc2ccccc2)cc1)C(=O)N[C@H]1c2ccccc2CC1O (stereo partly specified) | 0.0191 |
| CC(C)[C@H](NC(=O)OCc1ccccc1)C(=O)N[C@@H](Cc1ccccc1)[C@@H](O)[C@@H](NC1CCC(O)CC1)C(=O)N[C@H](C(=O)NCc1ccccc1)C(C)C (stereo in doubt; c) | 1.41 |
| CC(C)[C@H](NC(=O)[C@H](NCc1ccccc1)[C@H](O)[C@H](Cc1ccccc1)NC(=O)OC(C)(C)C)C(=O)NCc1ccccc1 | 0.158 |
| CC(C)(C)OC(=O)N[C@@H](Cc1ccccc1)[C@@H](O)[C@@H](NCc1ccc(OCCO)cc1)C(=O)N[C@H]1c2ccccc2CC1O (stereo partly specified) | 0.0794 |
| COc1ccc(CN[C@@H](C(=O)N[C@H]2c3ccccc3CC2O)[C@H](O)[C@H](Cc2ccccc2)NC(=O)[C@@H](NC(=O)OCc2ccccc2)C(C)(C)C)cc1 (stereo partly specified) | 1.82 |
| CC(C)[C@H](NC(=O)OCc1ccccc1)C(=O)N[C@@H](Cc1ccccc1)[C@@H](O)[C@@H](NC1CCC(O)CC1)C(=O)N[C@H](C(=O)NCc1ccccc1)C(C)C (stereo in doubt; 282808) | 1.7 |
| COc1ccc(CN[C@@H](C(=O)N[C@H](C(=O)NCc2nc3ccccc3[nH]2)C(C)C)[C@H](O)[C@H](Cc2ccccc2)NC(=O)[C@@H](NC(=O)OCc2nc3cc[nH]cc-3n2)C(C)(C)C)cc1 | 0.0191 |
| COc1ccc(CN[C@@H](C(=O)NCC(O)c2ccccc2)[C@H](O)[C@H](Cc2ccccc2)NC(=O)[C@@H](NC(=O)OCc2ccccc2)C(C)C)cc1 (stereo partly specified) | 2.51 |
| CC(C)(C)OC(=O)N[C@@H](Cc1ccccc1)[C@@H](O)[C@@H](NCc1ccc(CNC(=O)CCc2nc3ccccc3[nH]2)cc1)C(=O)NCc1ccccc1 | 0.676 |
| CC(C)[C@H](NC(=O)OCc1ccccn1)C(=O)N[C@@H](Cc1ccccc1)[C@@H](O)[C@@H](NCc1ccccc1)C(=O)N[C@H](C(=O)NCc1ccccn1)C(C)C | 0.0269 |
| CCOC(=O)[C@H](NCc1ccc(CN)cc1)[C@H](O)[C@H](Cc1ccccc1)NC(=O)[C@@H](NC(=O)OCc1ccccc1)C(C)C | 2.69 |
| CC(C)(C)OC(=O)N[C@@H](Cc1ccccc1)[C@@H](O)[C@@H](NCc1ccc(OCCN2CCOCC2)cc1)C(=O)N[C@H]1c2ccccc2CC1O (stereo partly specified) | 0.162 |
| CCOC(=O)[C@H](NCc1ccc(CNC(=O)c2ccccc2)cc1)[C@H](O)[C@H](Cc1ccccc1)NC(=O)[C@@H](NC(=O)OCc1ccccc1)C(C)C | 0.933 |
| CC(C)(C)OC(=O)N[C@@H](Cc1ccccc1)[C@@H](O)[C@@H](NCc1ccc(CNC(=O)CCc2nc3ccccc3[nH]2)cc1)C(=O)NC(CO)c1ccccc1 (stereo partly specified) | 2.51 |
| CC(C)[C@H](N)C(=O)N[C@@H](Cc1ccccc1)[C@@H](O)[C@@H](NCc1ccccc1)C(=O)N[C@H](C(=O)NCc1ccccc1)C(C)C | 0.741 |
| CC(C)[C@H](NC(=O)[C@H](NCc1ccccc1)[C@H](O)[C@H](Cc1ccccc1)NC(=O)[C@@H](NC(=O)c1nc2c(F)cccc2[nH]1)C(C)(C)C)C(=O)NCc1ccccc1 | 0.0269 |
| CC(=O)NCc1ccc(CN[C@@H](C(=O)N[C@H]2c3ccccc3CC2O)[C@H](O)[C@H](Cc2ccccc2)NC(=O)[C@@H](NC(=O)OCc2ccccc2)C(C)(C)C)cc1 (stereo partly specified) | 0.00575 |
| CC(C)[C@H](NC(=O)OCc1ccccc1)C(=O)N[C@@H](Cc1ccccc1)[C@@H](O)[C@@H](NCc1ccccc1)C(=O)N[C@H](C(=O)OCc1nc2ccc([N+](=O)[O-])cc2[nH]1)C(C)C | 0.0302 |
| CC(C)(C)[C@H](NC(=O)OCc1ccccc1)C(=O)N[C@@H](Cc1ccccc1)[C@@H](O)[C@@H](NCc1ccc(OCCN2CCOCC2)cc1)C(=O)N[C@H](CO)c1ccccc1 (stereo in doubt; 283267) | 0.129 |
| CC(C)(C)[C@H](NC(=O)OCc1ccccc1)C(=O)N[C@@H](Cc1ccccc1)[C@@H](O)[C@@H](NCc1ccc(OCCN2CCOCC2)cc1)C(=O)N[C@H]1c2ccccc2CC1O (stereo partly specified) | 0.00955 |
| CC(=O)NCc1ccc(CN[C@@H](C(=O)N[C@H]2c3ccccc3CC2O)[C@H](O)[C@H](Cc2ccccc2)NC(=O)OC(C)(C)C)cc1 (stereo partly specified) | 0.0708 |
| CC(C)[C@H](NC(=O)OCc1ccccc1)C(=O)N[C@@H](Cc1ccccc1)[C@@H](O)[C@@H](NCc1ccccc1)C(=O)N[C@H](C(=O)OCc1nc2cc(Cl)c(Cl)cc2[nH]1)C(C)C | 0.0229 |
| CC(C)(C)[C@H](NC(=O)OCc1ccccc1)C(=O)N[C@@H](Cc1ccccc1)[C@@H](O)[C@@H](NCc1ccccc1)C(=O)N[C@@H](CO)c1ccccc1 | 0.0363 |

Further molecules by falling Ki, results first:

| Ki [µM] | Structure (SMILES) |
| --- | --- |
| 0.0182 | COc1ccc(CN[C@@H](C(=O)N[C@H](C(=O)NCCc2ccc(O)cc2)C(C)C)[C@H](O)[C@H](Cc2ccccc2)NC(=O)[C@@H](NC(=O)OCc2ccccc2)C(C)C)cc1 |
| 0.0158 | CC(C)[C@H](NC(=O)[C@H](NCc1ccccc1)[C@H](O)[C@H](Cc1ccccc1)NC(=O)[C@@H](NC(=O)OCC1c2ccccc2-c2ccccc21)C(C)(C)C)C(=O)NCc1ccccc1 |
| 0.0151 | CC(C)[C@H](NC(=O)[C@H](NCc1ccccc1)[C@H](O)[C@H](Cc1ccccc1)NC(=O)[C@@H](NC(=O)[C@@H](O)Cc1ccccc1)C(C)(C)C)C(=O)NCc1ccccc1 |
| 0.0151 | COc1ccc(CN[C@@H](C(=O)N[C@H](C(=O)Nc2ccc3c(c2)OCCO3)C(C)C)[C@H](O)[C@H](Cc2ccccc2)NC(=O)[C@@H](NC(=O)OCc2ccccc2)C(C)C)cc1 |
| 0.0145 | CC(C)(C)[C@H](NC(=O)OCc1ccccc1)C(=O)N[C@@H](Cc1ccccc1)[C@@H](O)[C@@H](NCc1ccccc1)C(=O)N[C@H]1c2ccccc2CC1O (stereo partly specified) |
| 0.0141 | COc1ccc(CN[C@@H](C(=O)N[C@H](C(=O)NCc2ccc(N3NC=CS3)cc2)C(C)C)[C@H](O)[C@H](Cc2ccccc2)NC(=O)[C@@H](NC(=O)OCc2ccccc2)C(C)C)cc1 |
| 0.0126 | COc1ccc(CN[C@@H](C(=O)N[C@H](C(=O)NCc2nc3ccccc3[nH]2)C(C)C)[C@H](O)[C@H](Cc2ccccc2)NC(=O)[C@@H](NC(=O)OCc2ccccc2)C(C)C)cc1OC |
| 0.011 | CC(C)[C@H](NC(=O)[C@H](NCc1ccccc1)[C@H](O)[C@H](Cc1ccccc1)NC(=O)[C@@H](NC(=O)CC1NC(=O)NC1=O)C(C)(C)C)C(=O)NCc1ccccc1 (stereo partly specified) |
| 0.011 | COC(=O)CC[C@H](NC(=O)[C@H](NCc1ccc(OC)cc1)[C@H](O)[C@H](Cc1ccccc1)NC(=O)[C@@H](NC(=O)OCc1ccccc1)C(C)C)C(=O)NCc1nc2ccccc2[nH]1 |
| 0.011 | CC(C)[C@H](NC(=O)[C@H](NCc1ccc(Cl)cc1)[C@H](O)[C@H](Cc1ccccc1)NC(=O)OC(C)(C)C)C(=O)NCc1nc2ccccc2[nH]1 |
| 0.01 | CC(C)(C)[C@H](NC(=O)OCc1ccccc1)C(=O)N[C@@H](Cc1ccccc1)[C@@H](O)[C@@H](NCc1ccc(CNC(=O)OCc2ccccc2)cc1)C(=O)N[C@H]1c2ccccc2CC1O (stereo partly specified) |
| 0.00955 | COc1ccc(CN[C@@H](C(=O)N[C@H](C(=O)NCCNc2ccc([N+](=O)[O-])cn2)C(C)C)[C@H](O)[C@H](Cc2ccccc2)NC(=O)[C@@H](NC(=O)OCc2ccccc2)C(C)C)cc1 |
| 0.00891 | COc1ccc(C[C@H](NC(=O)OC(C)(C)C)[C@@H](O)[C@@H](NCc2ccc(Cl)cc2)C(=O)N[C@H](C(=O)NCc2nc3ccccc3[nH]2)C(C)C)cc1 |
| 0.00891 | COc1ccc(CN[C@@H](C(=O)N[C@H](C(=O)NCCc2nc3ccccc3[nH]2)C(C)C)[C@H](O)[C@H](Cc2ccccc2)NC(=O)[C@@H](NC(=O)OCc2ccccc2)C(C)C)cc1 |
| 0.00603 | COC(=O)CC[C@H](NC(=O)[C@H](NCc1ccc(OC)cc1)[C@H](O)[C@H](Cc1ccccc1)NC(=O)[C@@H](NC(=O)OCc1ccccc1)C(C)C)C(=O)NCc1ccc(OC)cc1O |
| 0.00603 | COc1ccc(CN[C@@H](C(=O)N[C@H](C(=O)NCc2nc3ccccc3[nH]2)C(C)C)[C@H](O)[C@H](Cc2ccccc2)NC(=O)[C@@H](NC(=O)[C@@H](O)Cc2ccccc2)C(C)(C)C)cc1 |
| 0.00562 | CC(C)[C@H](NC(=O)[C@H](NCc1ccc(Br)cc1)[C@H](O)[C@H](Cc1ccccc1)NC(=O)[C@@H](NC(=O)c1ccc2ccccc2n1)C(C)(C)C)C(=O)NCc1nc2ccccc2[nH]1 |
| 0.00525 | COc1ccc(CN[C@@H](C(=O)N[C@H](C(=O)NCc2nc3ccccc3[nH]2)C(C)C)[C@H](O)[C@H](Cc2ccccc2)NC(=O)[C@@H](NC(=O)CCc2ccc(C(P(=O)(O)OCc3ccccc3)P(=O)(O)OCc3ccccc3)cc2)C(C)(C)C)cc1 (stereo partly specified) |
| 0.00417 | COc1ccc(CN[C@@H](C(=O)N[C@H](C(=O)NCc2nc3cc[nH]cc-3n2)C(C)C)[C@H](O)[C@H](Cc2ccccc2)NC(=O)[C@@H](NC(=O)OCc2ccccc2)C(C)C)cc1 |
| 0.00417 | COc1ccc(CN[C@@H](C(=O)N[C@H](C(=O)NCc2ccc(OC)cc2OC)C(C)C)[C@H](O)[C@H](Cc2ccccc2)NC(=O)[C@@H](NC(=O)OCc2ccccc2)C(C)C)cc1 |
| 0.00407 | CC(C)(C)[C@H](NC(=O)OCc1ccccc1)C(=O)N[C@@H](Cc1ccccc1)[C@@H](O)[C@@H](NCc1ccc(CNC(=O)CCc2nc3ccccc3[nH]2)cc1)C(=O)N[C@H]1c2ccccc2CC1O (stereo partly specified) |
